Among the data in article PMC11475281, “A Novel Liver Cancer-Selective Histone Deacetylase Inhibitor Is Effective against Hepatocellular Carcinoma and Induces Durable Responses with Immunotherapy” (ACS Pharmacology & Translational Science, 2024) are viability and IC50 values, retold here.

Where two headings read alike, the source gives them in different places.

By viability is commonly meant a read-out of living cells in per cent, often relative to untreated cells.

Series [1] deals with GLUT-2. Kind of series: GLUT-2 uptake experiment (phloretin blockade, MTS). It counts as cell-based. The conditions noted are these: African green monkey, VERO cells, with phloretin 25 µM, Pre-treated with 25 μM Ph, read-out: VERO Cell Viability %. As to the method:
We observed that Ph selectively mitigated the cytotoxicity of STR-V-53 against the Hep-G2 cell line with no apparent effect on the cytotoxicity of SAHA (Figure 2a). […] This matches our expectation because Hep-G2 cells overexpress GLUT-2 while VERO has limited expression of GLUT-2.[26] […]
Hep-G2 or VERO cells were seeded (2500 to 4,000 counts/well) into 96-well plates, in which each well contains 100 µL media. The cells were cultured overnight in the respective media described in the cell culture section above. On day 2, the cells were treated with 25 µM Phloretin for 24 h. On day 3, 200x stock solutions of STR-V-53 and SAHA were used to prepare 2x treatment solution by adding 1% stock solution in the media. Then, without removal of the media in 96-well plates, the same volumes of drug as the media were added directly to the wells with gentle pipetting to reach 1x drug solution with 25 µM Ph. After another 72 h, the media were removed, and new media (100 µL) added to the wells. MTS solution (20 µL) was added to each well. After 2.5-4 h incubation, the plates were read using a multiplate reader at 490 nm. The data were processed using GraphPad Prism 8. […]

Series [2] relates to Hep-G2 cells. Kind of series: GLUT-2 uptake experiment (phloretin blockade, MTS). Type of series: cell-based. The conditions noted are these: Homo sapiens, read-out: Hep-G2 Cell Viability %; for viability at 1.25 µM: HepG2, 1.25 μM; for viability at 2.5 µM: HepG2, 2.5 μM; for viability at 6.25 µM: HepG2, 6.25 μM; for viability at 12.5 µM: HepG2, 12.5 μM. As to the method: We observed that Ph selectively mitigated the cytotoxicity of STR-V-53 against the Hep-G2 cell line with no apparent effect on the cytotoxicity of SAHA (Figure 2a). […] This matches our expectation because Hep-G2 cells overexpress GLUT-2 while VERO has limited expression of GLUT-2.[26]
MIDI 4-20% gel (Biorad, cat. 5671093) and ran at 150 V for 70 min. The gel was then transferred onto the Turbo PDVF membrane (Biorad, 1704273), and after blocking with 5% BSA for 1-2 h, the membrane was incubated overnight with primary antibodies Ac-Tubulin (sc-23950), Ac-H4 (sc-515319) (Santa Cruz Biotechnology), caspase 3 and clv-Caspase 3 (Cell signaling Technology), anti-p21WAF/CIP (ThermoFisher), anti-GAPDH (Aldrich-Sigma). On the second day, the membrane was washed with TBST for 3x5 min; a secondary antibody (LiCOR) was added, and the membrane was incubated with agitation for 1 h. After washing with TBS-T 3x5 mins, bands were quantified using the Odyssey CLx Image system.
Hep-G2 or VERO cells were seeded (2500 to 4,000 counts/well) into 96-well plates, in which each well contains 100 µL media. The cells were cultured overnight in the respective media described in the cell culture section above. On day 2, the cells were treated with 25 µM Phloretin for 24 h. On day 3, 200x stock solutions of STR-V-53 and SAHA were used to prepare 2x treatment solution by adding 1% stock solution in the media. Then, without removal of the media in 96-well plates, the same volumes of drug as the media were added directly to the wells with gentle pipetting to reach 1x drug solution with 25 µM Ph. After another 72 h, the media were removed, and new media (100 µL) added to the wells. MTS solution (20 µL) was added to each well. After 2.5-4 h incubation, the plates were read using a multiplate reader at 490 nm. The data were processed using GraphPad Prism 8.
Hep-G2 cells (5*106) were seeded in a 10 cm plate with MEM and incubated until 50% confluency before drug treatment. Cells were treated, with DMSO (control) and DMSO solutions of SAHA (5 µM) and STR-V-53 (15 µM) such that the final DMSO level was 0.1%,

Series [3] has as its system Hep-G2 (HCC). Kind of series: MTS cell viability assay, 72 h. The conditions noted are these: Table S2; read-out: Anti-proliferation IC50 Hep-G2. Type of series: cell-based, human. The source says:
We then screened STR-V-53 and all the synthesized glycosylated HDACi for their effects on the viability of three cell lines: A549 (lung adenocarcinoma), Hep-G2 (HCC), and VERO (a normal kidney epithelial cell). We used SORA and STR-V-48, a previously disclosed nonglycosylated compound, as controls.[25] […] Additionally, compound STR-V-167, the peracetylated analog of STR-V-53, largely retained the Hep-G2 selectivity of STR-V-53 (Table S2). Subsequently, we evaluated the effects of STR-V-53 on cell proliferation using a panel of human HCC cell lines (Huh-7, SK-Hep-1, and Hep3B) as well as Kupffer cells (liver resident macrophages) by MTS assay. We observed that STR-V-53 is 7- to 16-fold more cytotoxic against these HCC cell lines relative to the Kupffer cells (Figure 1g). […] Based on their weak HDAC and cell proliferation inhibition activities, we de-emphasized further evaluation of the class III compounds.
10-017-CV), supplemented with 10% fetal bovine serum (FBS) (Corning, 35-010-CV). Hep-G2 cells were cultured in phenol red-free Minimum Essential Medium (MEM) (Corning, 17-305-CV), supplemented with 10% fetal bovine serum (FBS). SK-Hep-1 in ATCC-formulated EMEM (ATCC® 30–2003™); Huh-7 in DMEM (containing 4 mM L-glutamine and 1 g/L glucose) with […]
Kupffer Cell Media (Sekisui XenoTech, LLC, Cat. #K8700). Cells were seeded into a 96-well plate (2000 counts/100uL) for 24 h prior to treatment and then treated with various drug concentrations for 72 h. All drugs were dissolved in media with DMSO concentration maintained at 1%. The effect of compounds on cell viability was measured using the MTS assay (CellTiter 96 Aqueous One Solution and CellTiter 96 Non-Radioactive Cell Proliferation Assays, Promega, Madison, WI) as described by the manufacturer. IC50s were determined using Prism GraphPad 8. […]

`O=C(CCCCCCC(=O)Nc1ccccc1)NO` [SAHA, vorinostat, reference compound]: in series [1] (6.5 μM), the viability at 72 h, 6.5 µM is 87.2%. Moreover, in series [1] (12.5 μM), the viability at 72 h, 12.5 µM came to 7.5%. Also, in series [2] (No addition of Ph), the viability at 1.25 µM was determined as 96.2% and the viability at 2.5 µM amounted to 31.2%. In series [2] (Pre-treated with 25 μM Ph), the viability at 1.25 µM came out at 84% and the viability at 2.5 µM is 41.8%.

`O=C(CCCCCCn1cc(-c2ccc(O[C@@H]3O[C@H](CO)[C@@H](O)[C@H](O)[C@H]3O)cc2)nn1)NO` [STR-I-195]: the IC50 in series [3] amounted to 22.3 ± 2 µM.

For the compound `O=C(CCCCCCn1cc(-c2ccc(O[C@H]3O[C@H](CO)[C@@H](O)[C@H](O)[C@H]3O)cc2)nn1)NO` [STR-V-53], the viability at 72 h, 75 µM in series [1] (75μM) was 100%. The viability at 72 h, 100 µM in series [1] (100μM) was 75.9%. Besides, in series [2] (No addition of Ph), the viability at 6.25 µM was 104% and the viability at 12.5 µM turned out to be 25.4%. In series [2] (Pre-treated with 25 μM Ph), the viability at 6.25 µM was found to be 103% and the viability at 12.5 µM is 70.3%.

`O=C(CCCCCCn1cc(-c2ccc3cc(O[C@H]4O[C@H](CO)[C@@H](O)[C@H](O)[C@H]4O)ccc3c2)nn1)NO` [STR-V-114]: the IC50 in series [3] was 6.7 ± 1.6 µM.
